# In ChEMBL document CHEMBL5465560, “Selectivity Literature for EUbOPEN Chemogenomic Library” (2024):
# What was measured:
# [1] = tested on: Tyrosine-protein kinase ABL1 (Homo sapiens), P00519 [E255K]; assay: (§1) Selectivity interaction (KinomeScan (DiscoverX)) EUB0001049a ABL1; settings: at 1 µM
# [2] = tested on: Tyrosine-protein kinase ABL1 (Homo sapiens), P00519 [F317I]; assay: as §1; settings: at 1 µM
# [3] = tested on: Tyrosine-protein kinase ABL1 (Homo sapiens), P00519 [F317L]; assay: as §1; settings: at 1 µM
# [4] = tested on: Tyrosine-protein kinase ABL1 (Homo sapiens), P00519 [H396P]; assay: as §1; settings: at 1 µM
# [5] = tested on: Tyrosine-protein kinase ABL1 (Homo sapiens), P00519 [M351T]; assay: as §1; settings: at 1 µM
# [6] = tested on: Tyrosine-protein kinase ABL1 (Homo sapiens), P00519 [Q252H]; assay: as §1; settings: at 1 µM
# [7] = tested on: Tyrosine-protein kinase ABL1 (Homo sapiens), P00519 [T315I]; assay: as §1; settings: at 1 µM
# [8] = tested on: Tyrosine-protein kinase ABL1 (Homo sapiens), P00519 [Y253F]; assay: as §1; settings: at 1 µM
# [9] = biological target: Tyrosine-protein kinase ABL1 (Homo sapiens, UniProt P00519); assay: as §1; settings: at 1 µM
# [10] = biological target: Ribosomal protein S6 kinase alpha-3 (Homo sapiens, UniProt P51812); assay: Selectivity interaction (Kinase panel (KiNativ target engagement assay in Jurkat cells)) EUB0001635a RPS6KA3; assay type: cell-based; settings: Selectivity number of off-targets 0.0, Selectivity number of targets 233.0, Source Knowledge https://www.sciencedirect.com/science/article/pii/S2451945619300674?via%3Dihub, at 1 µM
# Sequence of Ribosomal protein S6 kinase alpha-3 (P51812 whole entry): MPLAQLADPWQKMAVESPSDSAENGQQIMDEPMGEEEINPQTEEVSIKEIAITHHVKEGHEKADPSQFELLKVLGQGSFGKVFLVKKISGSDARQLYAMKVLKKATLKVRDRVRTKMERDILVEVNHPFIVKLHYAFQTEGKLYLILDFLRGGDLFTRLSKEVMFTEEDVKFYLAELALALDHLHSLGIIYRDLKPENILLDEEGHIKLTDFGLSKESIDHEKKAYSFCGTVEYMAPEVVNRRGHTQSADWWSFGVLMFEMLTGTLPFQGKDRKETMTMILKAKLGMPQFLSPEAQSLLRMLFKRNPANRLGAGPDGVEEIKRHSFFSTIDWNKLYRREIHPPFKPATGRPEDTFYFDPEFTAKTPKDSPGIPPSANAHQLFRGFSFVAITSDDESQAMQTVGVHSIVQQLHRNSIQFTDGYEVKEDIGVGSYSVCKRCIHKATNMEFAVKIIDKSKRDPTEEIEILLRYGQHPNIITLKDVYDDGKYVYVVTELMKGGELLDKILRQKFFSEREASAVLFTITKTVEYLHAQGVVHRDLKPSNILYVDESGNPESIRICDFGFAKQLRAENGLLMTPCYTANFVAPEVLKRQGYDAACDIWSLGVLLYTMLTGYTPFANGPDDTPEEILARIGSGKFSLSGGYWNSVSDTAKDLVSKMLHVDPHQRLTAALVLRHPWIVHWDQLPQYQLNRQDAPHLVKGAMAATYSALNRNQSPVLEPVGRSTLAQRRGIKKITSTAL
# [11] = biological target: Dual specificity mitogen-activated protein kinase kinase 2 (Homo sapiens) (UniProt P36507); assay: Selectivity interaction (Kinase panel (Invitrogen)) EUB0000639a MAP2K2; settings: at 200 nM
# Sequence of Dual specificity mitogen-activated protein kinase kinase 2 (Homo sapiens) (P36507 whole entry): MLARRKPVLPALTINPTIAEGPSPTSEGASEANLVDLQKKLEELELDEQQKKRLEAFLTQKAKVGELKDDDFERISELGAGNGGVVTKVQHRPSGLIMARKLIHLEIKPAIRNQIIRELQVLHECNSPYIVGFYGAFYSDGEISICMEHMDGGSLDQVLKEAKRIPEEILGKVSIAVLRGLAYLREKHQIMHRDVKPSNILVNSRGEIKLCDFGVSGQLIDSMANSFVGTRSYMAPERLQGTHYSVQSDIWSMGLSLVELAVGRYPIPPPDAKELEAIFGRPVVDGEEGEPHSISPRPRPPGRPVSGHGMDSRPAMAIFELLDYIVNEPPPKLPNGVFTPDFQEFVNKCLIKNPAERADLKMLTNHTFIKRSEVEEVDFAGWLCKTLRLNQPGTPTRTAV
# [12] = biological target: T1, Serine/threonine-protein kinase D1 (Homo sapiens) (UniProt Q15139); settings: at 10 µM
# T1 sequence (whole entry): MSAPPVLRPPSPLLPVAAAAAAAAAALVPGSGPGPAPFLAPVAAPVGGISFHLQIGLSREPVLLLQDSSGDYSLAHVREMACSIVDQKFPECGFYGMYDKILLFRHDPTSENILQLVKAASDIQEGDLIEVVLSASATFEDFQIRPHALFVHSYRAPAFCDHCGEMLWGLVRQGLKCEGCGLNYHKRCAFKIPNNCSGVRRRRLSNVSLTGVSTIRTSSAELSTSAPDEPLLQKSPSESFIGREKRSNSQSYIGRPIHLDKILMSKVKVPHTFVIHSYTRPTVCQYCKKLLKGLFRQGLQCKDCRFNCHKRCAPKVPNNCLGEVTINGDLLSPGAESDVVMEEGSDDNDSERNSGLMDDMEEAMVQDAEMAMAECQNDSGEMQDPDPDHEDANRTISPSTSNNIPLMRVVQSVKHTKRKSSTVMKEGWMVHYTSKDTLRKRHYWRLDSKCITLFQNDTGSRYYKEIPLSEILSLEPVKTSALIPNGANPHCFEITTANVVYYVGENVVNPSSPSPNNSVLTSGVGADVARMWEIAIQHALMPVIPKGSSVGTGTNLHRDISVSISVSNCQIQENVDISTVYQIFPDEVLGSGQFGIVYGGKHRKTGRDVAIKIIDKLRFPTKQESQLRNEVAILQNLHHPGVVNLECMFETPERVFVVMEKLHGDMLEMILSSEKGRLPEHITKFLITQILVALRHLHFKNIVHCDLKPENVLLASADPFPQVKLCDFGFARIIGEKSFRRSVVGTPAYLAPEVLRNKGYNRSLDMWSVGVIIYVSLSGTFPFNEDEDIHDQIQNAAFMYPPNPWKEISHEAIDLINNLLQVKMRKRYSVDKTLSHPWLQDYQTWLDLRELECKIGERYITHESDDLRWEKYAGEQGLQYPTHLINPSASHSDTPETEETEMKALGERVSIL
# [13] = biological target: T2, Mitogen-activated protein kinase kinase kinase 15 (Homo sapiens) (UniProt Q6ZN16); assay: Selectivity interaction (KinomeScan (DiscoverX)) EUB0000618a MAP3K15; settings: at 10 µM
# T2 sequence (whole entry): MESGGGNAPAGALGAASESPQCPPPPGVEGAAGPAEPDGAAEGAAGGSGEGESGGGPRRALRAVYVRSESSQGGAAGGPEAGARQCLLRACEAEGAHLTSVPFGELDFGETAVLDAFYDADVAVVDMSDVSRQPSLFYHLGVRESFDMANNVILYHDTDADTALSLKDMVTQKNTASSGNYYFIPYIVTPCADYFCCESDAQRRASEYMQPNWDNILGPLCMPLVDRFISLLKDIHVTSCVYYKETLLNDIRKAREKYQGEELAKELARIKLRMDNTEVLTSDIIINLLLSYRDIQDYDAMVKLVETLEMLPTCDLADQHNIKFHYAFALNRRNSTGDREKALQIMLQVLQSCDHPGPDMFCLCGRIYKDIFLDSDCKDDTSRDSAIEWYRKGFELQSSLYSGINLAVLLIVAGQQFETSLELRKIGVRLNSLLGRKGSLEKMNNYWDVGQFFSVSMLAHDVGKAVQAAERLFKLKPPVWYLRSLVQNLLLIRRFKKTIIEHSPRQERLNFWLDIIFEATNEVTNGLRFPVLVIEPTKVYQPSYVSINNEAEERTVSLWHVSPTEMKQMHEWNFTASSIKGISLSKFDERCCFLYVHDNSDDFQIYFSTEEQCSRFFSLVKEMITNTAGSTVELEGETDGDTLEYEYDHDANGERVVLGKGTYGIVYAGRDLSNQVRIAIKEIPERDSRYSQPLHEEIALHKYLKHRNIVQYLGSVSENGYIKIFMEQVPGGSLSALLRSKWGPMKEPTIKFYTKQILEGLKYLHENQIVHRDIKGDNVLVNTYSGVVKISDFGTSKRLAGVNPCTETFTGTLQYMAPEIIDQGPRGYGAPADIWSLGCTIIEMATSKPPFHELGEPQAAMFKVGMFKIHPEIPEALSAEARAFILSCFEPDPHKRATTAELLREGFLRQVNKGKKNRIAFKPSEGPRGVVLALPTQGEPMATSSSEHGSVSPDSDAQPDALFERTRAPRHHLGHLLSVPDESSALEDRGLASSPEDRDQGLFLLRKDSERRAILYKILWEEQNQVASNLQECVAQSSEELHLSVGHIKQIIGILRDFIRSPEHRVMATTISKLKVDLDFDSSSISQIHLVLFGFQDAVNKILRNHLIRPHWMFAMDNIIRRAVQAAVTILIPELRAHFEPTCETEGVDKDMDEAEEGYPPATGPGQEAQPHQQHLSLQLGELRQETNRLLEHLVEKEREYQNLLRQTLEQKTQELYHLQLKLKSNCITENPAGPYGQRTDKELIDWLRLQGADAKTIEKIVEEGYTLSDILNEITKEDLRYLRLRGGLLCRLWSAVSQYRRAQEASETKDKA
smiles,measurement,setting,value
COc1cc(Nc2nc(C)cc(-c3cnn4nc(OC)ccc34)n2)cc(C(F)(F)F)c1,% of control,[1],86%
same,% of control,[2],97%
same,% of control,[3],92%
same,% of control,[4],64%
same,% of control,[5],99%
same,% of control,[6],68%
same,% of control,[7],75%
same,% of control,[8],70%
same,% of control,[9],63%
C=CC(=O)Nc1ccc(C(=O)Nc2[nH]nc3c2CN(C(=O)N[C@H](CN(C)C)c2ccccc2)C3(C)C)cc1,% of engagement,[10],13.1%
CC[C@@H]1[C@H](F)C(=O)N[C@@H]1COc1nccc2cc(C(N)=O)c(OC)cc12 [ZIMLOVISERTIB],% of inhibition,[11],13.2%
COCC(=O)NC/C=C/c1ccc2ncnc(Nc3ccc(Oc4ccc(C)nc4)c(C)c3)c2c1 [CP-724714],% of control,[12],85%
O[C@H]1CC[C@H](Nc2ncc3nc(Nc4c(F)cc(F)cc4F)n([C@H]4CCOC4)c3n2)CC1,% of control,[13],100%
